The values below come from ChEMBL document CHEMBL1149532, “Identification of 2-(4,5,6,7-tetrahydro-1H-pyrrolo[3,2-c]pyridin-3-yl)-ethylamine derivatives as novel GnRH receptor antagonists” (Bioorg Med Chem Lett, 2007).

A word on the IC50: it is the point on the concentration scale where inhibition reaches its midpoint. The Ki is a measure of affinity in units of concentration, obtained from inhibition or displacement. The AUC is concentration integrated over time.

The source made the active and inactive calls. The calls are words filed in the database; no cut-off is given here.

Series [1] deals with T1, Gonadotropin-releasing hormone receptor (Homo sapiens, UniProt P30968).
T1 sequence (P30968 whole entry): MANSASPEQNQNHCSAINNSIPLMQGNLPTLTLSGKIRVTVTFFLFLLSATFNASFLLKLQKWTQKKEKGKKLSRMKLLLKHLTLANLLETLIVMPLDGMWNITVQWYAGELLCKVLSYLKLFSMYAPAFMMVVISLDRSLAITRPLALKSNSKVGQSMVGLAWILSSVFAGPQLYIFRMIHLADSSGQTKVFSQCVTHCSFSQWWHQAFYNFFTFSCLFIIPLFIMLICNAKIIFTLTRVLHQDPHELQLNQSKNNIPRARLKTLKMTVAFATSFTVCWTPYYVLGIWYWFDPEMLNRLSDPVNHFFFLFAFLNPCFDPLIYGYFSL
As to the kind of experiment: Inhibition of human GnRHR expressed in RBL cells assessed as inhibition of GnRH-stimulated [3H]inositol phosphate hydrolysis. In kind it is functional, cell-based.

The target in series [2] is T2, Gonadotropin-releasing hormone receptor (Rattus norvegicus, UniProt P30969).
T2 sequence (P30969 whole entry): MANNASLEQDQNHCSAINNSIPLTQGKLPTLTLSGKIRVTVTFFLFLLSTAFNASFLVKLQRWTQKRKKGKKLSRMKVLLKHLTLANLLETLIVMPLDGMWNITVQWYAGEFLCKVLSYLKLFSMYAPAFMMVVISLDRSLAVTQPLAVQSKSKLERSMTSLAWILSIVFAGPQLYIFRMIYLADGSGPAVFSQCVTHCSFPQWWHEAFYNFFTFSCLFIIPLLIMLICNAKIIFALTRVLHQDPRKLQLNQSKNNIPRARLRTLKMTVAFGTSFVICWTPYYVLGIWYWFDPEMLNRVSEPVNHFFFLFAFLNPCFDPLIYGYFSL
As to the kind of experiment: Inhibition of GnRHR in rat pituitary cells assessed as inhibition of GnRH-stimulated LH release. In kind it is functional, cell-based, Pituitary gland cell.

Series [3] addresses T2, Gonadotropin-releasing hormone receptor. Kind of series: Displacement of [125I]-Tyr5, DLeu6, NMeLeu7, Pro-N-Et-GnRH from cloned rat GnRHR. In general terms: In a radioligand displacement assay an active substance lowers the binding of a labelled ligand.
Series [4] can be described thus: AUC in rat at 15 mg/kg, ip after 24 hrs. Type of series: ADME, organism-based. The arrangement: time < 24 hr, dose 15 mg/kg, route intraperitoneal. The conditions noted are these: plasma.
A short description of series [5]: AUC in rat at 4.5 mg/kg, ip after 24 hrs. In kind it is ADME, organism-based. The conditions noted are these: plasma. On the set-up: time < 24 hr, dose 4.5 mg/kg, route intraperitoneal.
The target of series [6] is T3, Gonadotropin-releasing hormone receptor (Rattus norvegicus) (UniProt P30969).
T3 sequence (whole entry): T2 sequence (P30969 whole entry)
As to the kind of experiment: Decrease in LH concentration in rat plasma at 15 mg/kg, ip after 24 hrs by radioimmunoassay. On the set-up: dose 15 mg/kg. Type of series: functional, organism-based.

Series [7] is described as follows: AUC in rat at 1.5 mg/kg, ip after 24 hrs. In kind it is ADME, organism-based. The arrangement: time < 24 hr, dose 1.5 mg/kg, route intraperitoneal. Conditions: plasma.
The target of series [8] is T3, Gonadotropin-releasing hormone receptor (Rattus norvegicus). Kind of series: Decrease in LH concentration in rat plasma at 1.5 mg/kg, ip after 24 hrs by radioimmunoassay. Type of series: functional, organism-based. The arrangement: dose 1.5 mg/kg.

As to `Cc1cc(C)cc(-c2[nH]c3c(c2[C@H](C)CNCCc2ccncc2)CN(C(=O)Cc2ccccc2)CC3)c1`, the results for the IC50 in series [1] and in series [2] were 1.11 µM and 0.11 µM, respectively. This compound also yielded a Ki in series [3] of 0.0045 µM.

Regarding `Cc1cc(C)cc(-c2[nH]c3c(c2[C@H](C)CNCCc2ccncc2)CN(C(=O)C2CCCC2)CC3)c1`, the IC50 in series [1] turned out to be 3.48 µM; in series [2] it was 0.25 µM. In series [3], this compound came in with an inhibitory constant (Ki) of 0.018 µM.

For `Cc1cc(C)cc(-c2[nH]c3c(c2[C@H](C)CNCCc2ccncc2)CN(C(=O)Cc2c(F)cccc2C(F)(F)F)CC3)c1`, the IC50 is 0.062 µM in series [1] and 0.057 µM in series [2]. The compound further returned a Ki in series [3] of 0.0005 µM.

Regarding `Cc1cc(C)cc(-c2[nH]c3c(c2[C@H](C)CN)CN(C(=O)Cc2c(F)cccc2C(F)(F)F)CC3)c1`, the IC50 in series [1] is 4.18 µM. In series [3], the affinity, expressed as Ki, was 0.47 µM.

For the compound `Cc1cc(C)cc(-c2[nH]c3c(c2[C@H](C)CNCCc2ccncc2)CN(C(=O)C2C(C)(C)C2(C)C)CC3)c1`, the IC50 in series [1] came out at 0.475 µM; in series [2], 0.096 µM. This compound also yielded an inhibition constant Ki in series [3] of 0.0013 µM.

Consider `Cc1cc(C)cc(-c2[nH]c3c(c2[C@H](C)CNCCc2cc4[nH]nnc4cc2F)CN(C(=O)Cc2c(F)cccc2C(F)(F)F)CC3)c1`, for which the concentration for half-maximal inhibition (IC50) in series [1] was determined as 0.016 µM; in series [2], 0.028 µM. Moreover, the inhibition constant Ki in series [3] turned out to be 0.0007 µM.

For `CCn1c(=O)[nH]c2cc(CCNC[C@@H](C)c3c(-c4cc(C)cc(C)c4)[nH]c4c3CN(C(=O)Cc3c(F)cccc3C(F)(F)F)CC4)ccc2c1=O`, the 50% inhibitory concentration (IC50) in series [1] stood at 0.091 µM. In addition, affinity in series [3] was put at a Ki of 0.0018 µM.

As to `CC(=O)N1CCc2[nH]c(-c3cc(C)cc(C)c3)c([C@H](C)CNCCc3ccncc3)c2C1`, in series [1], the IC50 came to 8.09 µM. In series [3], this compound displayed a Ki of 0.12 µM.

Take `Cc1cc(C)cc(-c2[nH]c3c(c2[C@H](C)CNCc2ccc(-c4nnn[nH]4)cc2)CN(C(=O)Cc2c(F)cccc2C(F)(F)F)CC3)c1`: in series [1], the IC50 was 1.6 µM. The same compound returned a Ki in series [3] of 1.6 µM.

Consider `Cc1cc(C)cc(-c2[nH]c3c(c2[C@H](C)CNCCc2ccncc2)CN(C(=O)Cc2ccccc2F)CC3)c1`, for which the values for the IC50 in series [1] and in series [2] were 0.271 µM and 0.28 µM, respectively. In series [3], this compound returned an inhibition constant (Ki) of 0.0018 µM.

As for `Cc1cc(C)cc(-c2[nH]c3c(c2[C@H](C)CNCCC2CCOCC2)CN(C(=O)Cc2c(F)cccc2C(F)(F)F)CC3)c1`, the figures for the IC50 in series [1] and in series [2] were 0.205 µM and 0.48 µM, respectively. In series [3], the Ki came out at 0.0047 µM.

For the compound `Cc1cc(C)cc(-c2[nH]c3c(c2[C@H](C)CNCCc2ccc4nccnc4c2)CN(C(=O)Cc2c(F)cccc2C(F)(F)F)CC3)c1`, the IC50 in series [1] was 0.06 µM; in series [2], 0.068 µM. This compound also registered an inhibitory constant (Ki) in series [3] of 0.0003 µM.

For `Cc1cc(C)cc(-c2[nH]c3c(c2[C@H](C)CNCCOc2ccc(-c4nnn[nH]4)cc2)CN(C(=O)Cc2c(F)cccc2C(F)(F)F)CC3)c1`, in series [1], the IC50 amounted to 0.063 µM. The same compound returned a Ki in series [3] of 0.0062 µM.

Take `Cc1cc(C)cc(-c2[nH]c3c(c2[C@H](C)CNCCc2ccncc2)CN(C(=O)C24CC5CC(CC(C5)C2)C4)CC3)c1`: the IC50 in series [1] is 0.546 µM; in series [2], 0.063 µM. The same compound showed an inhibition constant Ki in series [3] of 0.0015 µM.

Regarding `Cc1cc(C)cc(-c2[nH]c3c(c2[C@H](C)CNCCc2ccncc2)CNCC3)c1`, in series [1], the half-inhibitory concentration (IC50) is more than 10 µM. The Ki in series [3] was more than 10 µM.

Regarding `Cc1cc(C)cc(-c2[nH]c3c(c2[C@H](C)CNCCc2ccc(C(=O)O)cc2)CN(C(=O)Cc2c(F)cccc2C(F)(F)F)CC3)c1`, the half-maximal inhibitory concentration (IC50) in series [1] was determined as 0.022 µM. In series [3], this compound yielded a Ki of 0.002 µM.

Take `Cc1cc(C)cc(-c2[nH]c3c(c2[C@H](C)CNCCc2ccc(-c4nnn[nH]4)cc2)CN(C(=O)Cc2c(F)cccc2C(F)(F)F)CC3)c1`: the AUC at 24 h in series [4] worked out at 6500 ng·h/mL; in series [5], 2470 ng·h/mL; in series [7], 1290 ng·h/mL. Further, the result in series [6] was Active. Also, the half-maximal inhibitory concentration (IC50) amounted to 0.0015 µM in series [1] and 0.0006 µM in series [2]. Further, in series [8], the Activity entry was “Dose-dependent effect”. Further, the inhibition constant Ki in series [3] came to 0.0002 µM.

Consider `Cc1cc(C)cc(-c2[nH]c3c(c2[C@H](C)CNCCc2ccc4nn[nH]c4c2)CN(C(=O)Cc2c(F)cccc2C(F)(F)F)CC3)c1`, for which the half-maximal inhibitory concentration (IC50) was 0.026 µM in series [1] and 0.0012 µM in series [2]. Further, the affinity in series [3], expressed as Ki, was 0.0005 µM.

For `Cc1cc(C)cc(-c2[nH]c3c(c2[C@H](C)CNCCc2ccncc2)CN(C(=O)c2ccccc2)CC3)c1`, in series [1], the half-maximal inhibitory concentration (IC50) was more than 10 µM. In series [3], this compound showed an inhibition constant (Ki) of 0.66 µM.

As to `Cc1cc(C)cc(-c2[nH]c3c(c2[C@H](C)CNCCc2ccc(=O)n(C)c2)CN(C(=O)Cc2c(F)cccc2C(F)(F)F)CC3)c1`, the IC50 in series [1] was 0.032 µM. Further, in series [3], affinity was put at a Ki of 0.0004 µM.

As for `COc1ccccc1CC(=O)N1CCc2[nH]c(-c3cc(C)cc(C)c3)c([C@H](C)CNCCc3ccncc3)c2C1`, in series [1], the half-maximal inhibitory concentration (IC50) was determined as 0.462 µM. For the same compound, the Ki in series [3] worked out at 0.0056 µM.

For the compound `Cc1cc(C)cc(-c2[nH]c3c(c2[C@H](C)CNCCc2ccc(-c4nnn[nH]4)nc2)CN(C(=O)Cc2c(F)cccc2C(F)(F)F)CC3)c1`, the IC50 came to 0.007 µM in series [1] and 0.044 µM in series [2]. This compound also gave a Ki in series [3] of 0.0006 µM.

Consider `Cc1cc(C)cc(-c2[nH]c3c(c2[C@H](C)CNCCc2cnc4nn[nH]c4c2)CN(C(=O)Cc2c(F)cccc2C(F)(F)F)CC3)c1`, for which the half-maximal inhibitory concentration (IC50) was 0.009 µM in series [1] and 0.0064 µM in series [2]. Further, in series [3], the affinity, expressed as Ki, was 0.0006 µM.

Consider `Cc1cc(C)cc(-c2[nH]c3c(c2[C@H](C)CNCCc2ccncc2)CN(C(=O)Cc2ccccc2C(F)(F)F)CC3)c1`, for which the figures for the IC50 in series [1] and in series [2] were 0.086 µM and 0.047 µM, respectively. This compound also registered an inhibition constant (Ki) in series [3] of 0.0015 µM.

With `Cc1cc(C)cc(-c2[nH]c3c(c2[C@H](C)CNCCc2ccncc2)CN(C(=O)Cc2ccccc2Cl)CC3)c1`, in series [1], the IC50 worked out at 0.267 µM. Besides, in series [3], the Ki worked out at 0.0026 µM.

With `Cc1cc(C)cc(-c2[nH]c3c(c2[C@H](C)CNCCc2ccc4nc(C)[nH]c4c2)CN(C(=O)Cc2c(F)cccc2C(F)(F)F)CC3)c1`, the concentration for half-maximal inhibition (IC50) in series [1] was determined as 0.087 µM. Besides, affinity in series [3] was put at a Ki of 0.001 µM.
